# Patent publication US10435399B2, “HDAC6 inhibitory heterocyclic compound” (TAKEDA PHARMACEUTICAL COMPANY LIMITED, priority 2017, dated 2019)
# Target: T1, HDAC6 enzyme (Homo sapiens, UniProt Q9UBN7)
# T1 construct: transducing full length HDAC6 gene into Sf-9 insect cells; GST; purchased SignalChem; host or cells: Sf-9 insect cells
# T1 sequence (Q9UBN7 1-1215): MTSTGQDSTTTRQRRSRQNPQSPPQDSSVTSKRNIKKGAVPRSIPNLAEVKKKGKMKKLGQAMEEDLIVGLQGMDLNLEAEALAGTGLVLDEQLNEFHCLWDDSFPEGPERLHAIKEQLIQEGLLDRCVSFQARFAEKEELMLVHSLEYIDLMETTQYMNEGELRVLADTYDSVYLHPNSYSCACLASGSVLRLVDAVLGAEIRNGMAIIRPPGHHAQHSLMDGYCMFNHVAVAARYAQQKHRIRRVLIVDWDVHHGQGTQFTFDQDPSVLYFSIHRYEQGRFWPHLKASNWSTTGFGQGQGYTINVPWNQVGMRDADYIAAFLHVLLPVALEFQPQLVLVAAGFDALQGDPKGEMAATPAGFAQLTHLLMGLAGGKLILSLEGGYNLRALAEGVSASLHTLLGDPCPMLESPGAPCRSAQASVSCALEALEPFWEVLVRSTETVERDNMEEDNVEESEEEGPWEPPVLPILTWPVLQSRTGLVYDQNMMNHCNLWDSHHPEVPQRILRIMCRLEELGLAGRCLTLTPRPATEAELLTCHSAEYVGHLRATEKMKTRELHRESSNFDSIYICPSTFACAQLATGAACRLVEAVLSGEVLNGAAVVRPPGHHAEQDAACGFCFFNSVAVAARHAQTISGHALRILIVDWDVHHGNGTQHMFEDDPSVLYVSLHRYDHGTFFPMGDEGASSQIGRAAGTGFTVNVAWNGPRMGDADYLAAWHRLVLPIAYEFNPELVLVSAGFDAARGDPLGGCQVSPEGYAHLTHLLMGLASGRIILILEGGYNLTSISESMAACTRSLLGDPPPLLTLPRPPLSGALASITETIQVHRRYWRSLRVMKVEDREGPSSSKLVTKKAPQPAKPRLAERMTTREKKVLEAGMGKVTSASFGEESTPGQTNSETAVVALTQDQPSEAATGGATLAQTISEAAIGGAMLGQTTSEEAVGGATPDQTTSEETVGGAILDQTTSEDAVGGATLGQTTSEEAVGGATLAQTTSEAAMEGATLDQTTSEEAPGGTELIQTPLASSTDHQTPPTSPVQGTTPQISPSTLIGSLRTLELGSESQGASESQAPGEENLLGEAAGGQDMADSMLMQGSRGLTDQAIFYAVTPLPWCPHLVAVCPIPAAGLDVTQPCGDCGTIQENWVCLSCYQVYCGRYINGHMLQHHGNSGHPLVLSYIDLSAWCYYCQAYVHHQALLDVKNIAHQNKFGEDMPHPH
# Test: HDAC6 enzyme inhibitory activity (HDAC-Glo I/II Assay kit)
# Format: biochemical
# Conditions: 10 μM; wells without enzyme = 100% inhibition; read-out: HDAC6 inhibitory rate (%) (10 μM)
# Protocol: HDAC6 enzyme prepared by transducing full length HDAC6 gene into Sf-9 insect cells and purifying by GST affinity column were purchased from SignalChem. Using this enzyme, HDAC6 enzyme inhibitory activities of the compound of the present invention were evaluated. Enzymes were used after preserved at −70° C. HDAC6 enzyme inhibitory activity of the compound of the present invention was measured using HDAC-Glo™ I/II Assay kit (Promega) according to the following experimental method. The test compound diluted with assay buffer (24 mM Tris-HCl (pH 7.5), 1 mM MgCl2, 0.35 mM KCl, 135 mM NaCl, 0.6 mM Glutathione, 0.01% Tween-20) was added to a 384-well plate by each 2 μL. Then, HDAC6 enzyme solution diluted with assay buffer was added thereto by each 4 μL, and the plate was incubated at room temperature for 60 min. After incubated, HDAC substrate-Developer solution prepared according to Promega protocol attached to the assay kit was added to the 384-well plate by each 2 μL, and the enzyme reaction was started. After reacting at room temperature for 20 min, luminescence level was measured using plate reader Envision (PerkinElmer). The inhibitory activity of each compound of Example was calculated as a relative activity value when luminescence level in wells without enzyme is considered as 100% inhibition.
row,SMILES,inhibition at 10 µM
1,"O=C(N[C@@H]1CCCC[C@H]1N1Cc2ccc(-c3nnc(C(F)F)o3)cc2C1=O)[C@H]1C[C@H]1F (mixture of isomers) [Example 111, (1RS,2RS)-N-((1R,2R)-2-(6-(5-(difluoromethyl)-1,3,4-oxadiazol-2-yl)-1-oxo-1,3-dihydro-2H-isoindol-2-yl)cyclohexyl)-2-fluorocyclopropanecarboxamide]",101%
2,"O=C(N[C@@H]1CCCC[C@H]1N1Cc2ccc(-c3nnc(C(F)F)o3)cc2C1=O)[C@@H]1C[C@H]1F (racemic) [Example 69, (1SR,2RS)-N-((1R,2R)-2-(6-(5-(difluoromethyl)-1,3,4-oxadiazol-2--yl)-1-oxo-1,3-dihydro-2H-isoindol-2-yl)cyclohexyl)-2-fluorocyclopropanecarboxamide]",101%
3,"COC(=O)N1CC[C@@H](c2ccc(F)cc2)[C@H](N2Cc3ccc(-c4nnc(C(F)F)o4)cc3C2=O)C1 (racemic) [Example 504, methyl (3SR,4SR)-3-(6-(5-(difluoro-methyl)-1,3,4-oxadiazol-2-yl)-1-oxo-1,3-dihydro-2H-isoindol-2-yl)-4-(4-fluoro-phenyl) piperidine-1-carboxylate]",100%
4,"O=C1c2cc(-c3nnc(C(F)F)o3)ccc2CN1[C@@H]1CCCC[C@H]1n1cccn1 (racemic) [Example 514, 6-(5-(difluoromethyl)-1,3,4-oxadiazol-2-yl)-2-((1RS,2RS)-2-(1H-pyrazol-1-yl)cyclohexyl)isoindolin-1-one]",99%
5,"O=C1c2cc(-c3nnc(C(F)F)o3)cnc2CN1[C@@H]1CCCC[C@H]1n1cccn1 (racemic) [Example 526, 3-(5-(difluoromethyl)-1,3,4-oxadiazol-2-yl)-6-((1RS,2RS)-2-(1H-pyrazol-1-yl)cyclohexyl)-6,7-dihydro-5H-pyrrolo[3,4-b]pyridin-5-one]",101%
6,"O=C1c2cc(-c3nnc(C(F)F)o3)ccc2CN1[C@H]1CCCC[C@H]1n1cccn1 (racemic) [Example 527, 6-(5-(difluoromethyl)-1,3,4-oxadiazol-2-yl)-2-((1SR,2RS)-2-(1H-pyrazol-1-yl)cyclohexyl)isoindolin-1-one]",99%
7,"O=C1c2cc(-c3nnc(C(F)F)o3)cnc2CN1[C@@H]1CCCC[C@H]1Oc1ccc(F)cc1 (racemic) [Example 535, 3-(5-(difluoromethyl)-1,3,4-oxadiazol-2-yl)-6-((1RS,2RS)-2-(4-fluorophenoxy)cyclohexyl)-6,7-dihydro-5H-pyrrolo[3,4-b]pyridin-5-one]",99%
8,"O=C1c2cc(-c3nnc(C(F)F)o3)cnc2CN1[C@H]1CCCC[C@H]1n1cccn1 (racemic) [Example 541, 3-(5-(difluoromethyl)-1,3,4-oxadiazol-2-yl)-6-((1SR,2RS)-2-(1H-pyrazol-1-yl)cyclohexyl)-6,7-dihydro-5H-pyrrolo[3,4-b]pyridin-5-one]",99%
9,"O=C(C(F)F)N1CC[C@@H](c2ccc(F)cc2)[C@H](N2Cc3ccc(-c4nnc(C(F)F)o4)cc3C2=O)C1 (racemic) [Example 546, 2-((3SR,4SR)-1-(difluoroacetyl)-4-(4-fluorophenyl)piperidin-3-yl)-6-(5-(difluoromethyl)-1,3,4-oxadiazol-2-yl)isoindolin-1-one]",100%
10,"O=C1c2cc(-c3nnc(C(F)F)o3)ccc2CN1[C@@H]1CN(C(=O)C(F)(F)C(F)(F)F)CC[C@H]1c1ccc(F)cc1 (racemic) [Example 548, 6-(5-(difluoromethyl)-1,3,4-oxadiazol-2-yl)-2-((3SR,4SR)-4-(4-fluorophenyl)-1-(2,2,3,3,3-pentafluoropropanoyl)piperidin-3-yl)isoindolin-1-one]",100%
11,"O=C1c2cc(-c3nnc(C(F)F)o3)ccc2CN1[C@@H]1CCCC[C@H]1c1ncco1 (racemic) [Example 549, 6-(5-(difluoromethyl)-1,3,4-oxadiazol-2-yl)-2-((1RS,2RS)-2-(1,3-oxazol-2-yl)cyclohexyl)isoindolin-1-one]",100%
12,"N#C[C@@H]1CCCC[C@H]1N1Cc2ccc(-c3nnc(C(F)F)o3)cc2C1=O (racemic) [Example 556, (1RS,2RS)-2-(6-(5-(difluoromethyl)-1,3,4-oxadiazol-2-yl)-1-oxo-1,3-dihydro-2H-isoindol-2-yl)cyclohexanecarbonitrile]",97%

# Next, values leading:
row,inhibition at 10 µM,SMILES
1,99%,"O=C1c2cc(-c3nnc(C(F)F)o3)ccc2CN1[C@@H]1CCCC[C@H]1c1noc(C2CC2)n1 (racemic) [Example 558, 2-((1RS,2RS)-2-(5-cyclopropyl-1,2,4-oxadiazol-3-yl)cyclohexyl)-6-(5-(difluoromethyl)-1,3,4-oxadiazol-2-yl)isoindolin-1-one]"
2,100%,"O=C1c2cc(-c3nnc(C(F)F)o3)ccc2CN1[C@@H]1CCCC[C@H]1Oc1cncc(F)c1 (racemic) [Example 559, 6-(5-(difluoromethyl)-1,3,4-oxadiazol-2-yl)-2-((1RS,2RS)-2-((5-fluoropyridin-3-yl)oxy)cyclohexyl)isoindolin-1-one]"
3,100%,"O=C1c2cc(-c3nnc(C(F)F)o3)ccc2CN1[C@@H]1CCCC[C@H]1c1nc(C2CC2)no1 (racemic) [Example 561, 2-((1RS,2RS)-2-(3-cyclopropyl-1,2,4-oxadiazol-5-yl)cyclohexyl)-6-(5-(difluoromethyl)-1,3,4-oxadiazol-2-yl)isoindolin-1-one]"
4,100%,"CC(C)(C)OC(=O)N1CCC[C@H](N2Cc3ccc(-c4nnc(C(F)F)o4)cc3C2=O)[C@H]1c1ccc(F)cc1 (racemic) [Example 574, tert-butyl (2RS,3SR)-3-(6-(5-(difluoromethyl)-1,3,4-oxadiazol-2-yl)-1-oxo-1,3-dihydro-2H-isoindol-2-yl)-2-(4-fluorophenyl)piperidine-1-carboxylate]"
5,100%,"O=C1c2cc(-c3nnc(C(F)F)o3)ccc2CN1[C@H]1CCCN[C@@H]1c1ccc(F)cc1 (racemic) [Example 575, 6-(5-(difluoromethyl)-1,3,4-oxadiazol-2-yl)-2-((2RS,3SR)-2-(4-fluorophenyl)piperidin-3-yl)isoindolin-1-one]"
6,99%,"CC(F)(F)C(=O)N1CCC[C@H](N2Cc3ccc(-c4nnc(C(F)F)o4)cc3C2=O)[C@H]1c1ccc(F)cc1 (racemic) [Example 576, 6-(5-(difluoromethyl)-1,3,4-oxadiazol-2-yl)-2-((2RS,3SR)-1-(2,2-difluoropropanoyl)-2-(4-fluorophenyl)piperidin-3-yl)isoindolin-1-one]"
7,97%,"O=C1c2cc(-c3nnc(C(F)F)o3)ccc2CN1[C@H]1CCCN(C(=O)C(F)(F)C(F)(F)F)[C@@H]1c1ccc(F)cc1 (racemic) [Example 577, 6-(5-(difluoromethyl)-1,3,4-oxadiazol-2-yl)-2-((2RS,3SR)-2-(4-fluorophenyl)-1-(2,2,3,3,3-pentafluoropropanoyl)piperidin-3-yl)isoindolin-1-one]"
8,100%,"COC(=O)N1CCC[C@H](N2Cc3ccc(-c4nnc(C(F)F)o4)cc3C2=O)[C@H]1c1ccc(F)cc1 (racemic) [Example 578, methyl (2RS,3SR)-3-(6-(5-(difluoromethyl)-1,3,4-oxadiazol-2-yl)-1-oxo-1,3-dihydro-2H-isoindol-2-yl)-2-(4-fluorophenyl)piperidine-1-carboxylate]"
